In ChEMBL document CHEMBL5252651, “Discovery of Bioactive Metabolites by Acidic Stress to a Geldanamycin Producer, Streptomyces samsunensis” (J Nat Prod, 2023):
The source made the active and inactive calls. No cut-off for these calls is given here.

Test system: Staphylococcus aureus
Assay: Antivirulence activity against methicillin-resistant Staphylococcus aureus USA300 LAC assessed as change in Hla transcriptional level at 10 ug/ml incubated for 8 to 16 hrs by qRT-PCR analysis
Format: functional, organism-based
Conditions: dose 10.0 µg/ml, time 8-16 hrs

| SMILES | Activity |
| --- | --- |
| CO[C@@H](C[C@H](C)Cc1cc(O)cc(NC(C)=O)c1)[C@H](O)[C@H](C)C(=O)O | inactive |
| CO[C@H]1/C=C\C=C(/C)C(=O)NC2=CC(=O)C(O)=C(C[C@@H](C)C[C@H](OC)[C@H](O)[C@@H](C)/C=C(\C)[C@@H]1OC(N)=O)C2=O | inactive |
| COC1=C2C[C@@H](C)C[C@H](OC)[C@H](O)[C@@H](C)/C=C(\C)[C@H](OC(N)=O)[C@@H](OC)/C=C\C=C(/C)C(=O)NC(=CC1=O)C2=O | inactive |
